The term EC50 denotes the concentration at which the effect is half-maximal.

Results on 19 compounds are retold here after patent US12577206B2 (BRISTOL-MYERS SQUIBB COMPANY, priority 2020, dated 2026).

Each structure is given as a SMILES string.

In experiment [1] the target is T1, human FPR2 (Homo sapiens, UniProt P25090).
T1 sequence (P25090 1-351): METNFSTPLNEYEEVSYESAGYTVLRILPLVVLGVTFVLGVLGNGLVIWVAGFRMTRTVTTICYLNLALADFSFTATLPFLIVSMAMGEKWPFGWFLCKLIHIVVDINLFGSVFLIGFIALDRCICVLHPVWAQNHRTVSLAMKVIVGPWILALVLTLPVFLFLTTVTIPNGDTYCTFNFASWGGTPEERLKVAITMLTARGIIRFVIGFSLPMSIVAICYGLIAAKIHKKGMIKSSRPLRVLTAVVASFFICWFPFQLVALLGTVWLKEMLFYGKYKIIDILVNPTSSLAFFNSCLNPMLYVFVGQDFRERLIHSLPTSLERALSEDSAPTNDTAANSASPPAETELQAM
The experiment can be described thus: FPR2 cyclic adenosine monophosphate (cAMP) assay. Particulars: CHO cells overexpressing human FPR2; forskolin 5 μM; inhibition of cAMP production; HTRF; read-out: hFPR2 cAMP2 EC50. The format is cell-based. In short, it runs like this:
(§1)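 CHO cells overexpressing human FPR1 (4,000/well) or FPR2 (2,000/well) were incubated 30 min at room temperature with compound (0.020 nM to 100 μM, 1% DMSO), IBMX 200 μM, and forskolin at 10 μM (FPR1) or 5 μM (FPR2), all final. HTRF cAMP read-out; inhibition fitted by 4-parameter logistic equation.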
For orientation: cAMP levels reflect the balance of adenylyl cyclase and phosphodiesterase activity.

Experiment [2] addresses T2, human FPR1 (Homo sapiens, UniProt P21462).
T2 sequence (P21462 1-350): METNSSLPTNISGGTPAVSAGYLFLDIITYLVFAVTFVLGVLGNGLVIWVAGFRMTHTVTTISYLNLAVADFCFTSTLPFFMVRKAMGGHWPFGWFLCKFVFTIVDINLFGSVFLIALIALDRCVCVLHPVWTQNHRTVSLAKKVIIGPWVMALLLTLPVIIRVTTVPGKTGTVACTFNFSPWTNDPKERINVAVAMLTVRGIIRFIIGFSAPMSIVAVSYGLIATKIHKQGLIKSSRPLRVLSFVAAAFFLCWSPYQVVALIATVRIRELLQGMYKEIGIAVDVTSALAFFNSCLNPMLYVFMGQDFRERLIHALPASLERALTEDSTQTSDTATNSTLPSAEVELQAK
In words: FPR1 cyclic adenosine monophosphate (cAMP) assay. The format is cell-based. As to conditions: CHO cells overexpressing human FPR1; forskolin 10 μM; inhibition of cAMP production; HTRF; read-out: hFPR1 cAMP2 EC50. The procedure, abridged:
as §1

Turning to `COc1cc(F)c(-c2c(NC(=O)c3ccc(OC(F)(F)F)cc3)c(=O)n(-c3ncccc3Cl)n2C)c(F)c1` [Example 41, N-[2-(3-chloropyridin-2-yl)-5-(2,6-difluoro-4-methoxyphenyl)-1-methyl-3-oxo-2,3-dihydro-1H-pyrazol-4-yl]-4-(trifluoromethoxy)benzamide], the EC50 was 0.007 µM in experiment [1] and 2.1 µM in experiment [2].
As for `COc1cc(F)c(-c2c(NC(=O)c3ccc(OC(F)(F)F)cc3)c(=O)n(-c3cccc(-n4ccc(C)n4)n3)n2C)c(F)c1` [Example 70, N-[5-(2,6-difluoro-4-methoxyphenyl)-1-methyl-2-[6-(3-methyl-1H-pyrazol-1-yl)pyridin-2-yl]-3-oxo-2,3-dihydro-1H-pyrazol-4-yl]-4-(trifluoromethoxy)benzamide], the EC50 amounted to 0.003 µM in experiment [1] and 0.005 µM in experiment [2].
For `COc1cc(F)c(-c2c(NC(=O)c3ccc(OC(F)F)cc3)c(=O)n(-c3cccc(N4CC(C)(O)C4)n3)n2C)c(F)c1` [Example 312, N-[5-(2,6-difluoro-4-methoxyphenyl)-2-[6-(3-hydroxy-3-methylazetidin-1-yl)pyridin-2-yl]-1-methyl-3-oxo-2,3-dihydro-1H-pyrazol-4-yl]-4-(difluoromethoxy)benzamide], in that order: 0.012 µM and 2 µM.
For `COc1cc(F)c(-c2c(NC(=O)c3ccc(OC(F)F)cc3)c(=O)n(-c3nc(NC4COC4)ccc3C(F)(F)F)n2C)c(F)c1` [Example 253, N-[5-(2,6-difluoro-4-methoxyphenyl)-1-methyl-2-{6-[(oxetan-3-yl)amino]-3-(trifluoromethyl)pyridin-2-yl}-3-oxo-2,3-dihydro-1H-pyrazol-4-yl]-4-(difluoromethoxy)benzamide], in that order: 0.005 µM and > 10 µM.
For `COc1cc(F)c(-c2c(NC(=O)c3ccc(OC(F)F)cc3)c(=O)n(-c3cc(Cl)cc(C(=O)N(C)C)c3)n2C)c(F)c1` [Example 126, 3-chloro-5-[3-(2,6-difluoro-4-methoxyphenyl)-4-[4-(difluoromethoxy)benzamido]-2-methyl-5-oxo-2,5-dihydro-1H-pyrazol-1-yl]-N,N-dimethylbenzamide], in that order: 0.009 µM and 1.2 µM.
As to `Cn1c(-c2ccc(OC(F)(F)F)cc2)c(NC(=O)c2ccc(OC(F)F)cc2)c(=O)n1-c1ncccc1C(F)(F)F` [Example 304, 4-(difluoromethoxy)-N-{1-methyl-3-oxo-5-[4-(trifluoromethoxy)phenyl]-2-[3-(trifluoromethyl)pyridin-2-yl]-2,3-dihydro-1H-pyrazol-4-yl}benzamide], the EC50 amounted to 0.021 µM in experiment [1] and 0.11 µM in experiment [2].
Taken in the same sequence, the figures for `COc1cc(F)c(-c2c(NC(=O)c3ccc(OC(F)F)cc3)c(=O)n(-c3cccc(OC(F)F)n3)n2C)c(F)c1` [Example 168, N-[5-(2,6-difluoro-4-methoxyphenyl)-2-[6-(difluoromethoxy)pyridin-2-yl]-1-methyl-3-oxo-2,3-dihydro-1H-pyrazol-4-yl]-4-(difluoromethoxy)benzamide] were 0.012 µM and > 10 µM.
For `CC(C)Oc1cc(OCCO)nc(-n2c(=O)c(NC(=O)c3ccc(OC(F)(F)F)cc3)c(-c3c(F)cc(Cl)cc3F)n2C)c1` [Example 398, N-(5-(4-chloro-2,6-difluorophenyl)-2-(6-(2-hydroxyethoxy)-4-isopropoxypyridin-2-yl)-1-methyl-3-oxo-2,3-dihydro-1H-pyrazol-4-yl)-4-(trifluoromethoxy)benzamide], in that order: 0.024 µM and 0.59 µM.
For `COc1cc(OCC2CCCO2)nc(-n2c(=O)c(NC(=O)c3ccc(OC(F)F)cc3)c(-c3c(F)cc(OC)cc3F)n2C)c1` (centres unmarked) [Example 339, N-(5-(2,6-Difluoro-4-methoxyphenyl)-2-(4-methoxy-6-((tetrahydrofuran-2-yl)methoxy)pyridin-2-yl)-1-methyl-3-oxo-2,3-dihydro-1H-pyrazol-4-yl)-4-(difluoromethoxy)benzamide], in that order: 0.008 µM and > 10 µM.
Turning to `COc1cc(F)c(-c2c(NC(=O)c3ccc(OC(F)F)cc3)c(=O)n(-c3cc(C(F)(F)F)ccn3)n2C)c(F)c1` [Example 62, N-[5-(2,6-difluoro-4-methoxyphenyl)-1-methyl-3-oxo-2-[4-(trifluoromethyl)pyridin-2-yl]-2,3-dihydro-1H-pyrazol-4-yl]-4-(difluoromethoxy)benzamide], the EC50 in experiment [1] was 0.006 µM; in experiment [2], > 10 µM.
For `COc1cc(F)c(-c2c(NC(=O)c3ccc(OC(F)F)cc3)c(=O)n(-c3nc(C4CCN(S(C)(=O)=O)CC4)ccc3Cl)n2C)c(F)c1` [Example 316, N-{2-[3-chloro-6-(1-methanesulfonylpiperidin-4-yl)pyridin-2-yl]-5-(2,6-difluoro-4-methoxyphenyl)-1-methyl-3-oxo-2,3-dihydro-1H-pyrazol-4-yl}-4-(difluoromethoxy)benzamide], in that order: 0.002 µM and > 5 µM.
Taken in the same sequence, the figures for `COc1cc(C2CCN(S(C)(=O)=O)CC2)nc(-n2c(=O)c(NC(=O)c3ccc(OC(F)F)cc3)c(-c3c(F)cc(OC)cc3F)n2C)c1` [Example 366, N-(5-(2,6-Difluoro-4-methoxyphenyl)-2-(4-methoxy-6-(1-(methylsulfonyl)piperidin-4-yl)pyridin-2-yl)-1-methyl-3-oxo-2,3-dihydro-1H-pyrazol-4-yl)-4-(difluoromethoxy)benzamide] were 0.007 µM and > 10 µM.
For `COc1cc(F)c(-c2c(NC(=O)c3ccc(OC(F)F)cc3)c(=O)n(-c3nc(C(F)(F)F)ccc3OC)n2C)c(F)c1` [Example 371, N-(5-(2,6-Difluoro-4-methoxyphenyl)-2-(3-methoxy-6-(trifluoromethyl)pyridin-2-yl)-1-methyl-3-oxo-2,3-dihydro-1H-pyrazol-4-yl)-4-(difluoromethoxy)benzamide], in that order: 0.006 µM and 0.24 µM.
Turning to `COc1cc(F)c(-c2c(NC(=O)c3ccc(OC(F)F)cc3)c(=O)n(-c3nc(NCC(=O)NC4CC4)ccc3C(F)(F)F)n2C)c(F)c1` [Example 229, N-[2-(6-{[(cyclopropylcarbamoyl)methy]amino}-3-(trifluoromethyl)pyridin-2-yl)-5-(2,6-difluoro-4-methoxyphenyl)-1-methyl-3-oxo-2,3-dihydro-1H-pyrazol-4-yl]-4-(difluoromethoxy)benzamide], the figures for the EC50 in experiment [1] and in experiment [2] were 0.003 µM and > 10 µM, respectively.
Taken in the same sequence, the figures for `COc1cc(F)c(-c2c(NC(=O)c3ccc(OC(F)F)cc3)c(=O)n(-c3nc(C(F)(F)F)ccc3OCCO)n2C)c(F)c1` [Example 372, N-(5-(2,6-Difluoro-4-methoxyphenyl)-2-(3-(2-hydroxyethoxy)-6-(trifluoromethyl)pyridin-2-yl)-1-methyl-3-oxo-2,3-dihydro-1H-pyrazol-4-yl)-4-(difluoromethoxy)benzamide] were 0.006 µM and > 10 µM.
Taken in the same sequence, the figures for `COc1cc(F)c(-c2c(NC(=O)c3ccc(OC(F)F)cc3)c(=O)n(-c3nc(N4CC(OC(C)C)C4)ccc3C(F)(F)F)n2C)c(F)c1` [Example 140, N-[5-(2,6-difluoro-4-methoxyphenyl)-1-methyl-3-oxo-2-{6-[3-(propan-2-yloxy)azetidin-1-yl]-3-(trifluoromethyl)pyridin-2-yl}-2,3-dihydro-1H-pyrazol-4-yl]-4-(difluoromethoxy)benzamide] were 0.004 µM and 1.5 µM.
Taken in the same sequence, the figures for `Cn1c(-c2c(F)cc(C(F)(F)F)cc2F)c(NC(=O)c2ccc(OC(F)F)cc2)c(=O)n1-c1cccc(C(C)(C)O)n1` [Example 401, N-(5-(2,6-difluoro-4-(trifluoromethyl)phenyl)-2-(6-(2-hydroxypropan-2-yl)pyridin-2-yl)-1-methyl-3-oxo-2,3-dihydro-1H-pyrazol-4-yl)-4-(difluoromethoxy)benzamide] were 0.103 µM and 1.8 µM.
`COc1cc(F)c(-c2c(NC(=O)c3ccc(OC(F)F)cc3)c(=O)n(-c3nc(C4CC4)ccc3Br)n2C)c(F)c1` [Example 160, N-[2-(3-bromo-6-cyclopropylpyridin-2-yl)-5-(2,6-difluoro-4-methoxyphenyl)-1-methyl-3-oxo-2,3-dihydro-1H-pyrazol-4-yl]-4-(difluoromethoxy)benzamide]: the EC50 in experiment [1] was 0.003 µM; in experiment [2] it was > 10 µM.
For `COc1cc(F)c(-c2c(NC(=O)c3ccc(OC(F)(F)F)cc3)c(=O)n(-c3cccc(F)c3)n2C)c(F)c1` [Example 2, N-[5-(2,6-difluoro-4-methoxyphenyl)-2-(3-fluorophenyl)-1-methyl-3-oxo-2,3-dihydro-1H-pyrazol-4-yl]-4-(trifluoromethoxy)benzamide], in that order: 0.005 µM and 0.21 µM.
